Experiment [1] concerns JAK2/STAT5. Description: JAK2/STAT5 phosphorylation in breast cancer cell lines (pJAK2 ELISA, pSTAT5 immunoblot). The experiment is classed as cell-based, human. The settings on record: for JAK2 activation, starting at (time of treatment): in vitro, time after adding the compound. As to the method:
MDA231, lung metastatic subline MDA231 LM2 (Minn et al., 2005) and SUM159 human breast cancer cells, as well as the Balb/c tumor-derived mammary cancer lines 4T-1 and 168FARN (Aslakson and Miller, 1992), were propagated as previously described. All other cell lines were obtained from and were cultured according to the protocols of ATCC. For treatment with inhibitors, cells were synchronized without serum overnight and then supplemented with culture medium containing the inhibitor(s). For experiments with doxycycline-inducible shRNAs, 500 ng/ml of doxycycline (Sigma) was added to the medium and experiments performed 48 h later. Cell viability assays, cell cycle and cell death measurements were performed at 0.5% FCS in order to avoid masking effects of growth factors present under full-serum conditions.
Cells for Western Blotting and ELISA were lysed with RIPA buffer. Xenograft lysates were prepared by lysing kryo-homogenized tumor powder in RIPA buffer (50 mM Tris-HCl pH 8, 150 mM NaCl, 1% NP-40, 0.5% sodium deoxycholate, 0.1% SDS. RIPA was supplemented with 1× protease inhibitor cocktail (Complete Mini, Roche), 0.2 mmol/L sodium-vanadate, 20 mM sodium fluoride and 1 mmol/L phenylmethylsulfonyl fluoride. For IRS-1 immunoprecipitation, cell lysates containing 500-1000 μg of protein were incubated with 1 μg of antibody and 20-50 μl of protein A-Sepharose beads (Zymed Laboratories, Inc., South San Francisco, Calif.) overnight at 4° C. Immunoprecipitates or whole cell lysates (30-80 μg) were subjected to SDS-PAGE, transferred to PVDF membranes (Immobilon-P, Millipore) and blocked for 1 hr at room temperature with 5% milk in PBS-0.1% Tween 20. Membranes were then incubated overnight with antibodies as indicated and exposed to secondary HRP-coupled anti-mouse or -rabbit antibody at 1:5-10,000 for 1 h at room temperature. Proteins were visualized using an ECL kit (Amersham) or an enhanced chemiluminescence detection system (Pierce Biotechnology). In each of the studies presented, the results shown are typical of at least three independent experiments. The following antibodies were used: anti-JAK2 (Cell Signaling), anti-JAK1 (Cell Signaling), anti-pSTAT5 (Tyr694, Cell Signaling), anti-STAT5 (STAT5A&B, Cell Signaling), anti-STAT3 (Cell Signaling), anti-pSTAT3 (Tyr705, Cell Signaling), anti-AKT pan (Cell Signaling), anti-pAKT (Thr308 and Ser473, Cell Signaling), anti-ERK2 (Santa Cruz), anti-S6 (Cell Signaling), anti-pS6 (Ser235/236, Cell Signaling), anti-PARP (Cell Signaling), anti-MCL1 (Cell Signaling), anti-BIM (EL, L and S isoforms, Cell Signaling), anti-pIGF1R/plnsR (Invitrogen), anti-IGF1Rbeta (Cell Signaling), anti-InsRbeta (Santa Cruz), anti-IRS1 (Upstate), anti-plRS1 (Tyr612, Calbiochem).
For assessing pJAK2 levels, an ELISA assay (Tyr1007/1008, Invitrogen) was applied because of cross-reactivity of all pJAK2 antibodies tested. Interleukin-8 levels in RIPA lysates, cell culture supernatants and mouse tail vein blood plasma were measured by ELISA, as well (Biolegend). […]
The present inventors applied single doses of COMPOUND A, a dual PI3K and mTOR inhibitor, and analyzed target inhibition and potential signaling pathway crosstalks after 2, 4, 8 and 20 h hours of treatment. […] While RAD001 readily activated JAK2 starting at 4 hours of treatment, they observed a later response with BKM120 treatment starting at 8 hours after adding the compound. […]

Experiment [2] concerns MDA231 LM2 cells. Description: Matrigel Boyden chamber invasion assay. The experiment is classed as cell-based, human. The settings on record: 300 nM BEZ235, 350 nM NVP-BSK805, CXCR1 blocking antibody; 48 h; normalized to cell number. As to the method:
FIG. 2. Blockade of CXCR1 reduces invasion and has minor effects on primary tumor growth (A) NVP-BSK805 and CXCR1 blockade but not BEZ235 decrease invasion. Bar graphs showing relative invasion of MDA231 LM2 cells seeded on Matrigel coated Boyden invasion chambers and treated with 300 nM BEZ235, 350 nM NVP-BSK805, a JKA2 inhibitor, and/or CXCR1 blocking antibody. Invasion was assessed after 48 h, data represent relative invasion values normalized to cell number and are means±SEM (n=4, *P<0.05).
Cytokine stimulation of cells was performed for 30 min in medium with 0.5% FCS supplemented with cytokines at 10 ng/ml, except for EPO at 10 U/ml. Antibody-blocking experiments were performed by adding anti-CXCR1 (R&D, MAB330, 1 μg/ml), anti-CXCR2 (R&D, MAB331, 2.5 μg/ml) or a mouse IgG antibody (R&D, 1 μg/ml) to the medium 45 min prior to lysis of the cells. Cell viability was measured using the Cell Proliferation Reagent WST-1 (Roche). Colony formation assays were performed by seeding 1000 cells/well in 6-well plates and staining single colonies after 7-14 days with 0.2% crystal violet in PBS/4% formalin. […] The number of invading cells in each treatment condition was counted 48 h after seeding by microscopy at 40× (using the mean of 4 microscopic fields) and normalized to cell number.

The values below come from patent publication US20150224190A1, “Combination of a phosphoinositide 3-kinase inhibitor and an inhibitor of the IL-8/CXCR interaction” (priority 2012, published 2015).

SMILES strings stand for the structures.

Consider `Nc1cc(C(F)(F)F)c(-c2cc(N3CCOCC3)nc(N3CCOCC3)n2)cn1` [COMPOUND C, 5-(2,6-di-morpholin-4-yl-pyrimidin-4-yl)-4-trifluoromethyl-pyridin-2-ylamine], for which the “JAK2 activation, starting at (time of treatment)” value in experiment [1] worked out at 8 h.

`Fc1cc(-c2cccc3ncc(-c4cnn(C5CCNCC5)c4)nc23)cc(F)c1CN1CCOCC1` [NVP-BSK805, reference compound]: the “upregulation of pSTAT5 by BEZ235” value in experiment [1] (JAK2 inhibitor together with BEZ235) is “counteracted”. In addition, the relative invasion entry in experiment [2] was “decrease”. `CO[C@H]1C[C@@H]2CC[C@@H](C)[C@@](O)(O2)C(=O)C(=O)N2CCCC[C@H]2C(=O)O[C@H]([C@H](C)C[C@@H]2CC[C@@H](OCCO)[C@H](OC)C2)CC(=O)[C@H](C)/C=C(\C)[C@@H](O)[C@@H](OC)C(=O)[C@H](C)C[C@H](C)/C=C/C=C/C=C/1C` [RAD001, reference compound]: in experiment [1], the “JAK2 activation, starting at (time of treatment)” value came to 4 h.
